What all share (format): cell-based
One data set has as its system visna virus. Description: Plaque reduction assay, inhibition of visna virus in vitro. On the set-up: key to Antiviral Activity: A: active compound; I: inactive compound. The note with it: for Antiviral Activity: Table 1; for inhibition at 100 µM / inhibition at 1000 µM / inhibition at 10 µM / inhibition at 1 µM: Visna-maedi virus; for inhibition at 100 µM / inhibition at 1000 µM / % Plaque Reduction / inhibition at 10 µM / inhibition at 1 µM: Table 2; for inhibition at 1 µM: 0.001 mM. An excerpt: Visna virus, a lentivirus genetically very similar to the AIDS virus, is pathogenic for sheep and goats. See Sonigo et al., Cell 42, 369-382 (1985); Haase, Nature 322, 130-136 (1986). Inhibition of visna virus replication in vitro as a useful model for human immunodeficiency virus (HIV) and its inhibition by test compounds has been described by Franket al., Antimicrobial Agents and Chemotherapy 31 (9), 1369-1374 (1987). The N-butyl derivative of 1,5-dideoxy-1,5-imino-D-glucitol, also referred to as n-butyl-deoxynojirimycin (N-Bu-DNJ), was used as a control standard for comparison with various novel compounds of this invention.
Various compounds as prepared above were tested for inhibition of visna virus in vitro in a plaque reduction assay as follows:
(§1) Sheep choroid plexus (SCP) cells were obtained from American Type Culture Collection (ATCC) catalogue number CRL 1700 and were routinely passaged in vitro in Dulbecco's Modified Eagles (DME) medium supplemented with 20% fetal bovine serum (FBS). SCP cells were passaged once per week at a 1:2 or 1:3 split ratio. Visna was titrated by plaque assay in six-well plates. Virus pools were stored at -70° C.
(§2) SCP cells were cultured in 6-well plates to confluence. Wells were washed two times with serum free Minimal Essential Medium (MEM) to remove FBS. 0.2 ml of virus was added per well in MEM supplemented with 4 mM glutamine and gentamycin. After 1 hour adsorption, the virus was aspirated from each well. The appropriate concentration of each compound in 5 ml of Medium 199 (M-199) supplemented With 2% lamb serum, 4 mM glutamine, 0.5% agarose and gentamycin was added to each well. Cultures were incubated at 37° C. in a humidified 5% CO2 incubator for 3-4 weeks. To terminate the test: cultures were fixed in 10% formalin, the agar removed, the monolayers stained with 1% crystal violet and plaques counted. Each compound concentration was run in triplicate. […] 0 is no toxicity observed while 4 is total lysing of the cell monolayer.

For data set [1], the system named is Sheep choroid plexus (SCP) cells. Description: Toxicity of compounds in control wells without virus, graded morphologically. How it is done:
as §1, §2

Data set [2] shares this test system. The description is as above. Also noted: key: 0: no toxicity observed; 4: total lysing of the cell monolayer. The note with it: graded 0 to 4, Table 2. How it is done:
as §1, §2

The mark [3] stands for this setting: 0.03125 mM, 0 to 4 scale, Table 1.
Where [4] appears, read: 0.01 mM, graded 0 to 4, Table 2.

The results in this text go back to US5310745A, “Antiviral compounds” (priority 1992, dated 1994).

Turning to `CC(=O)OC[C@@H]1[C@@H](OC(C)=O)[C@H](OC(C)=O)[C@@H](OC(C)=O)CN1C` [Example 10, 1,5-(Methylimino)-1,5-dideoxy-D-glucitol, tetraacetate], the “Antiviral Activity” value in the data set with visna virus (0.03125 mM), in the data set on visna virus (0.0625 mM) and with visna virus (0.125 mM) was “A” each time. The Toxicity in data set [1] (setting [3]) was determined as 1; in data set [1] (0.0625 mM, 0 to 4 scale, Table 1), 2; in data set [1] (0.125 mM, 0 to 4 scale, Table 1), 3.
`CCCCCCN1C[C@H](OC(C)=O)[C@@H](OC(C)=O)[C@H](OC(C)=O)[C@H]1COC(C)=O` [Example 12, 1,5-(Hexylimino)-1,5-dideoxy-D-glucitol, tetraacetate]: the “Antiviral Activity” value in the data set with visna virus (0.0075 mM), in the data set with visna virus (0.0156 mM) and in the data set on visna virus (0.03125 mM) was “A” in each case. The Toxicity in data set [1] (0.0075 mM, 0 to 4 scale, Table 1) turned out to be 1; in data set [1] (0.0156 mM, 0 to 4 scale, Table 1), 1; in data set [1] (setting [3]), 2.
Turning to `CC(=O)OC[C@@H]1[C@@H](OC(C)=O)[C@H](OC(C)=O)[C@@H](OC(C)=O)CN1C(=O)COc1ccccc1` [Example 25, 1,5-[(Phenoxymethyl)carbonylimino]-1,5-dideoxy-D-glucitol, tetraacetate], the “Antiviral Activity” value with visna virus (0.1 mM) and in the data set with visna virus (1.0 mM) was “A” in each case. The Toxicity in data set [1] (0.1 mM, 0 to 4 scale, Table 1) is given as 1; in data set [1] (1.0 mM, 0 to 4 scale, Table 1) it was 2.
Broadly, the inhibition is the drop in the measured response relative to a control, in per cent. For the molecule `CCC(CC)CN1C[C@H](OC(C)=O)[C@@H](OC(C)=O)[C@H](OC(C)=O)[C@H]1COC(C)=O` [Example 27, 1,5-[(2-Ethylbutyl)imino]-1,5-dideoxy-D-glucitol, tetraacetate], in the data set with visna virus (0.1 mM), the inhibition at 100 µM is 12%. Further, the inhibition at 1000 µM in the data set with visna virus (1.0 mM) amounted to 65%. The Toxicity in data set [1] (1.0 mM, graded 0 to 4, Table 2) stood at 3; in data set [2] (0.1 mM) it was 0.
As to `CCCCN1C[C@H](OC(C)=O)[C@@H](OC(C)=O)[C@H](O)[C@H]1CO` [Example 28, 1,5-(Butylimino)-1,5-dideoxy-D-glucitol, 2,3-diacetate], the inhibition at 100 µM with visna virus (0.1 mM) came out at 44%. Besides, the inhibition at 1000 µM in the data set on visna virus (1.0 mM) worked out at 87%. Further, the Toxicity in data set [1] (0.1 mM, graded 0 to 4, Table 2) came to 2; in data set [2] (1.0 mM) it was 4.
With `CCCC(C)CN1C[C@H](OC(C)=O)[C@@H](OC(C)=O)[C@H](OC(C)=O)[C@H]1COC(C)=O` (stereo partly drawn) [Example 33, 1,5-[(2-Methylpentyl)imino]-1,5-dideoxy-D-glucitol, tetraacetate], the “% Plaque Reduction” value in the data set with visna virus (0.01 mM) is on record as 21%; in the data set with visna virus (0.1 mM) it was 28%; in the data set with visna virus (1.0 mM), 63%. Further, the Toxicity in data set [1] (1.0 mM, graded 0 to 4, Table 2) is given as 3; in data set [2] (0.01 mM) it was 0; in data set [2] (0.1 mM), 0.
As for `CC(=O)OC[C@@H]1[C@@H](OC(C)=O)[C@H](OC(C)=O)[C@@H](OC(C)=O)CN1C(=O)c1cccnc1` [Example 35, 1,5-[(3-Nicotinoyl)imino]-1,5-dideoxy-D-glucitol, tetraacetate], the inhibition at 10 µM in the data set on visna virus (0.01 mM) was 10%. The inhibition at 100 µM in the data set with visna virus (0.1 mM) worked out at 90%. The molecule also came in with an inhibition at 1000 µM in the data set on visna virus (1.0 mM) of 94%. For the same molecule, the Toxicity in data set [1] (0.1 mM, graded 0 to 4, Table 2) was 1; in data set [1] (1.0 mM, graded 0 to 4, Table 2) it was 3; in data set [2] (0.01 mM) it was 0.
With `CC(=O)OC[C@@H]1[C@@H](OC(C)=O)[C@H](OC(C)=O)[C@@H](OC(C)=O)CN1C(=O)C=Cc1ccccc1` [Example 36, 1,5-(Cinnamoylimino)-1,5-dideoxy-D-glucitol, tetraacetate], the “% Plaque Reduction” value with visna virus (0.1 mM) and with visna virus (1.0 mM) was “Toxic” in each case. This molecule also returned an inhibition at 1 µM in the data set with visna virus of 42%. The same molecule registered an inhibition at 10 µM in the data set on visna virus (0.01 mM) of 76%. For the same molecule, the Toxicity in data set [2] (0.001 mM) was 0; in data set [2] (0.01 mM), 0; in data set [2] (0.1 mM), 4; in data set [2] (1.0 mM) it was 4.
With `CCCCN1C[C@H](OC(=O)CCC)[C@@H](OC(=O)CCC)[C@H](O)[C@H]1CO` [Example 38, 1,5-(Butylimino)-1,5-dideoxy-D-glucitol, 2,3-dibutyrate], the “% Plaque Reduction” value in the data set with visna virus (1.0 mM) is “Toxic”. In the data set with visna virus, the inhibition at 1 µM was found to be 47%. In the data set with visna virus (0.01 mM), this molecule displayed an inhibition at 10 µM of 54%. In the data set on visna virus (0.1 mM), this molecule registered an inhibition at 100 µM of 80%. Besides, the Toxicity is reported as 2 in data set [1] (0.1 mM, graded 0 to 4, Table 2); 0 in data set [2] (0.001 mM); 0 in data set [2] (0.01 mM); 4 in data set [2] (1.0 mM).
Turning to `CC(C)C(=O)OC[C@@H]1[C@@H](OC(=O)C(C)C)[C@H](OC(=O)C(C)C)[C@@H](OC(=O)C(C)C)CN1C(=O)Cc1ccccc1` [Example 39, 1,5-(Phenylacetylimino)-1,5-dideoxy-D-glucitol, tetraisobutyrate], in the data set with visna virus (0.01 mM), 10 µM produced 19% inhibition. In the data set on visna virus (0.1 mM), this molecule gave an inhibition at 100 µM of 56%. The same molecule displayed an inhibition at 1000 µM with visna virus (1.0 mM) of 95%. Moreover, the Toxicity in data set [1] (0.1 mM, graded 0 to 4, Table 2) is listed as 1; in data set [1] (1.0 mM, graded 0 to 4, Table 2) it was 3; in data set [2] (0.01 mM) it was 0.
In the case of `CC(=O)OC[C@@H]1[C@@H](OC(C)=O)[C@H](OC(C)=O)[C@@H](OC(C)=O)CN1C(=O)Cc1ccc(Cl)cc1` [Example 40, 1,5-[(4-Chlorophenyl)acetylimino]-1,5-dideoxy-D-glucitol, tetraacetate], in the data set with visna virus, the inhibition at 1 µM is 29%. In the data set with visna virus (0.01 mM), this molecule registered an inhibition at 10 µM of 46%. Further, the Toxicity in data set [1] (setting [4]) was determined as 1; in data set [1] (0.1 mM, graded 0 to 4, Table 2), 3; in data set [2] (0.001 mM), 0; in data set [2] (1.0 mM), 4.
As for `CCCCN1C[C@H](OC(=O)CCC(C)C)[C@@H](OC(=O)CCC(C)C)[C@H](OC(=O)CCC(C)C)[C@H]1COC(=O)CCC(C)C` [Example 49, 1,5-(Butylimino)-1,5-dideoxy-D-glucitol, tetra(4-methylpentanoate)], testing at 1000 µM in the data set with visna virus (1.0 mM) gave an inhibition of 98%. Also, the Toxicity in data set [2] (1.0 mM) came to 0.
Turning to `CCCC(=O)OC[C@@H]1[C@@H](OC(=O)CCC)[C@H](OC(=O)CCC)[C@@H](OC(=O)CCC)CN1C(=O)c1ccccc1OC(C)=O` [Example 52, 1,5-[[2-(Acetyloxy)benzoyl]imino]-1,5-dideoxy-D-glucitol, tetrabutanoate], the “% Plaque Reduction” value with visna virus (1.0 mM) is “Toxic”. Besides, the inhibition at 1 µM with visna virus amounted to 16%. This molecule also gave an inhibition at 10 µM with visna virus (0.01 mM) of 37%. The molecule further displayed an inhibition at 100 µM with visna virus (0.1 mM) of 98%. The Toxicity in data set [2] (0.001 mM) was 0; in data set [2] (0.01 mM), 0; in data set [2] (0.1 mM), 0; in data set [2] (1.0 mM), 4.
Consider `CCCC(=O)OC[C@@H]1[C@@H](OC(=O)CCC)[C@H](OC(=O)CCC)[C@@H](OC(=O)CCC)CN1C(=O)Cc1cccs1` [Example 55, 1,5-Dideoxy-1,5-[[1-oxo-2-(2-thienyl)ethyl]imino]-D-glucitol, tetrabutanoate], for which the “% Plaque Reduction” value in the data set on visna virus (1.0 mM) is “Toxic”. In addition, at 1 µM the inhibition in the data set on visna virus was 11%. In the data set with visna virus (0.01 mM), this molecule registered an inhibition at 10 µM of 37%. Testing at 100 µM in the data set with visna virus (0.1 mM) gave an inhibition of 95%. The Toxicity in data set [2] (0.001 mM) is reported as 0; in data set [2] (0.01 mM), 0; in data set [2] (0.1 mM), 0; in data set [2] (1.0 mM), 4.
`CCCCN1C[C@H](OC(=O)CCC2CCCC2)[C@@H](OC(=O)CCC2CCCC2)[C@H](OC(=O)CCC2CCCC2)[C@H]1COC(=O)CCC1CCCC1` [Example 56, 1,5-(Butylimino)-1,5-dideoxy-D-glucitol, tetra(3-cyclopentylpropanoate)] gave an inhibition at 10 µM in the data set with visna virus (0.01 mM) of 13%. This molecule also had an inhibition at 100 µM in the data set on visna virus (0.1 mM) of 16%. This molecule came in with an inhibition at 1000 µM in the data set on visna virus (1.0 mM) of 56%. Moreover, the Toxicity in data set [2] (0.01 mM), in data set [2] (0.1 mM) and in data set [2] (1.0 mM) was 0 each time.
In the data set on visna virus (0.01 mM), `CCCC(=O)OC[C@@H]1[C@@H](OC(=O)CCC)[C@H](OC(=O)CCC)[C@@H](OC(=O)CCC)CN1CCCCCCCC(F)(F)F` [Example 62, 1,5-(8,8,8-Trifluorooctylimino)-1,5-dideoxy-D-glucitol, tetrabutyrate] yielded an inhibition at 10 µM of 49%. This molecule also yielded an inhibition at 100 µM in the data set with visna virus (0.1 mM) of 91%. In the data set with visna virus (1.0 mM), this molecule had an inhibition at 1000 µM of 97%. Moreover, the Toxicity was determined as 1 in data set [1] (setting [4]); 1 in data set [1] (0.1 mM, graded 0 to 4, Table 2); 2 in data set [1] (1.0 mM, graded 0 to 4, Table 2).
